Reference: paper PMC3832412 (PLoS ONE, 2013)
Entries after “also recorded” stand apart in the source; their conditions may differ.

Experiments:
[1] = test system: NMDAR in primary rat hippocampal neurons; type: cell-based, rat (Sprague-Dawley)
[2] = test system: NMDAR in primary rat hippocampal neurons; type: cell-based, rat (Sprague-Dawley); remark: listed apart in the source

GIKAQRDILYYγGγGγEHI-CONH2 [scrambled peptide]
inhibition of NMDA-evoked current [1]: did not inhibit NMDA-evoked currents; also recorded: no such inhibitory activity
effect on iCa^2+ levels [2]: did not result in any decrease in iCa^2+ levels; also recorded: no significant differences; also recorded: no such inhibitory activity
